The subject of assay [1] is EMT6 mouse mammary carcinoma line. The assay is described as follows: Cytotoxicity, 18 h drug exposure, EMT6 NR− line. In kind it is cell-based. To be noted: Mus musculus, read-out: EMT6 NR− IC50. The text has this:
(§1) The Chinese hamster fibroblast NR− line (T78-1) is a V79/4 Chinese hamster fibroblast transfected with an empty shuttle vector, while the NR+ line (T79-A3) is the corresponding NR transfectant. The human colon carcinoma NR− line (WIDR) is wild-type, while the NR+ line (WC14 10) is the corresponding NR transfectant. The human ovarian carcinoma NR− line (SKOV3) is wild-type, while the NR+ line (SC3.2) is the corresponding NR transfectant. EMT6 is a mouse mammary carcinoma line, and EN2A is the NR-transformed counterpart.

Assay [2] relates to human colon carcinoma NR+ line (WC14 10), NR transfectant. Description: Cytotoxicity, 18 h drug exposure, WiDr NR+ line (WC14 10). In kind it is cell-based. To be noted: for pIC50: read-out: WiDr NR+ IC50; for WiDr ratio of IC50s: WIDR vs WC14 10, inter-experiment average.
Text: as §1

Assay [3] concerns EN2A, NR-transformed counterpart of EMT6. The assay is described as follows: Cytotoxicity, 18 h drug exposure, EMT6 NR+ line (EN2A). In kind it is cell-based, mouse. To be noted: for EMT6 ratio of IC50s: EMT6 vs EN2A, inter-experiment average; for pIC50: Mus musculus, read-out: EMT6 NR+ IC50.
Text: as §1

Assay [4] has as its system Chinese hamster fibroblast NR+ line (T79-A3), NR transfectant. Description: Cytotoxicity, 18 h drug exposure, V79 NR+ line (T79-A3). Type of assay: cell-based. To be noted: for pIC50: read-out: V-79 NR+ IC50; for V-79 ratio of IC50s: T78-1 vs T79-A3, inter-experiment average.
Text: as §1

The subject of assay [5] is human colon carcinoma NR− line (WIDR), wild-type. The assay is described as follows: Cytotoxicity, 18 h drug exposure, WiDr NR− line. Type of assay: cell-based. To be noted: read-out: WiDr NR− IC50.
Text: as §1

In assay [6] the test system is human ovarian carcinoma NR− line (SKOV3), wild-type. The assay is described as follows: Cytotoxicity, 18 h drug exposure, SKOV3 NR− line. In kind it is cell-based. To be noted: read-out: SKOV NR− IC50.
Text: as §1

For assay [7], the system named is Chinese hamster fibroblast NR− line (T78-1), V79/4 transfected with an empty shuttle vector. The assay is described as follows: Cytotoxicity, 18 h drug exposure, V79 NR− line (T78-1). To be noted: read-out: V-79 NR− IC50. Type of assay: cell-based.
Text: as §1

For assay [8], the system named is human ovarian carcinoma NR+ line (SC3.2), NR transfectant. Description: Cytotoxicity, 18 h drug exposure, SKOV NR+ line (SC3.2). Type of assay: cell-based. As to conditions: for pIC50: read-out: SKOV NR+ IC50; for SKOV ratio of IC50s: SKOV3 vs SC3.2, inter-experiment average.
Text: as §1

[9] abbreviates: Cricetulus griseus, Fibroblast, 18 h.
Where [10] appears, read: Cricetulus griseus, T78-1, 18 h.
Setting [11] is: Homo sapiens, WiDr, WC14 10 cells, 18 h drug exposure.
The mark [12] stands for this setting: Cricetulus griseus, Fibroblast, T79-A3 cells, 18 h drug exposure.
Where [13] appears, read: Homo sapiens, WIDR cells, 18 h drug exposure.
The mark [14] stands for this setting: Homo sapiens, SK-OV-3, SKOV3 cells, 18 h drug exposure.
Where [15] appears, read: Cricetulus griseus, T78-1 cells, 18 h drug exposure.
[16] abbreviates: Homo sapiens, SC3.2 cells, 18 h drug exposure.
The mark [17] stands for this setting: WC14 10 cells, 18 h drug exposure.
The mark [18] stands for this setting: T79-A3 cells, 18 h drug exposure.
Setting [19] is: SKOV3 cells, 18 h drug exposure.
[20] abbreviates: T78-1 cells, 18 h drug exposure.
The mark [21] stands for this setting: SC3.2 cells, 18 h drug exposure.

pIC50: −log10 of the molar value. Read-outs that look alike come from different tables or passages of the source.

Broadly, the pIC50 is the negative decadic logarithm of the IC50, by convention in mol/L. `NC(=O)c1cc(N2CC2)c([N+](=O)[O-])cc1[N+](=O)[O-]` [CB1954, 5-(aziridin-1-yl)-2,4-dinitrobenzamide, reference compound]: the pIC50 is 4.05 in assay [1] (EMT6, 18 h); 5.92 in assay [2] (Homo sapiens, WiDr, 18 h); 7.10 in assay [3] (EMT6, 18 h); 6.52 in assay [4] (setting [9]); 4.25 in assay [5] (Homo sapiens, WiDr, 18 h); 3.74 in assay [6] (Homo sapiens, SK-OV-3, 18 h). Moreover, the pIC50 in assay [7] (setting [10]) was 3.40; in assay [8] (Homo sapiens, 18 h), 6.24. Further, the “WiDr ratio of IC50s” value in assay [2] amounted to 51. In addition, in assay [3], the “EMT6 ratio of IC50s” value was 1100. Moreover, in assay [4], the “V-79 ratio of IC50s” value amounted to 1200. Also, the “SKOV ratio of IC50s” value in assay [8] came to 357.
Consider `O=C(NCC(O)CO)c1cc(N2CC2)c([N+](=O)[O-])cc1[N+](=O)[O-]` (stereo not drawn) [Compound 2, N-(2,3-dihydroxypropyl)-5-(aziridin-1-yl)-2,4-dinitrobenzamide], for which the pIC50 in assay [1] (EMT6 cells, 18 h drug exposure) is 4.05; in assay [2] (setting [11]), 5.43; in assay [3] (EMT6, EN2A cells, 18 h drug exposure), 5.96; in assay [4] (setting [12]) it was 6.15; in assay [5] (setting [13]) it was 3.83; in assay [6] (setting [14]), 3.77. In addition, the pIC50 was 3.68 in assay [7] (setting [15]) and 5.64 in assay [8] (setting [16]). Also, the “WiDr ratio of IC50s” value in assay [2] was determined as 49. The “EMT6 ratio of IC50s” value in assay [3] was determined as 86. Moreover, the “V-79 ratio of IC50s” value in assay [4] came to 381. Further, in assay [8], the “SKOV ratio of IC50s” value is 84.
`CN(CCN1CCOCC1)C(=O)c1cc(N2CC2)c([N+](=O)[O-])cc1[N+](=O)[O-]` [Compound 4, 5-(aziridin-1-yl)-N-methyl-N-[2-(4-morpholino)ethyl]-2,4-dinitrobenzamide]: the pIC50 in assay [2] (setting [17]) is 5.09; in assay [4] (setting [18]), 5.74; in assay [5] (WIDR cells, 18 h drug exposure), 3.77; in assay [6] (setting [19]), 3.27; in assay [7] (setting [20]), 3.44; in assay [8] (setting [21]), 4.89. In addition, in assay [2], the “WiDr ratio of IC50s” value was found to be 21. Further, the “V-79 ratio of IC50s” value in assay [4] came to 235. For the same compound, in assay [8], the “SKOV ratio of IC50s” value is listed as 46.
As for `O=C(NCCCN1CCOCC1)c1cc(N2CC2)c([N+](=O)[O-])cc1[N+](=O)[O-]` [Compound 5, 5-(aziridin-1-yl)-N-[3-(4-morpholino)propyl]-2,4-dinitrobenzamide], the negative-log IC50 (pIC50) in assay [2] (setting [17]) is 6.64; in assay [4] (setting [18]), 7.32; in assay [5] (WIDR cells, 18 h drug exposure) it was 4.52; in assay [6] (setting [19]) it was 3.91; in assay [7] (setting [20]), 3.59; in assay [8] (setting [21]), 6.82. Also, the “WiDr ratio of IC50s” value in assay [2] was 120. Also, the “V-79 ratio of IC50s” value in assay [4] is given as 6210. In addition, in assay [8], the “SKOV ratio of IC50s” value was determined as 730.
Turning to `O=C(NCCCCN1CCOCC1)c1cc(N2CC2)c([N+](=O)[O-])cc1[N+](=O)[O-]` [Compound 6, N-[4-(4-morpholino)butyl]-5-(aziridin-1-yl)-2,4-dinitrobenzamide], the pIC50 was 6.51 in assay [2] (setting [17]); 6.60 in assay [4] (setting [18]); 4.55 in assay [5] (WIDR cells, 18 h drug exposure); 3.82 in assay [6] (setting [19]); 3.63 in assay [7] (setting [20]); 6.52 in assay [8] (setting [21]). For the same compound, the “WiDr ratio of IC50s” value in assay [2] was found to be 93. In addition, the “V-79 ratio of IC50s” value in assay [4] is recorded as 1210. Moreover, in assay [8], the “SKOV ratio of IC50s” value was 510.
As to `O=C(NCCn1ccnc1)c1cc(N2CC2)c([N+](=O)[O-])cc1[N+](=O)[O-]` [Compound 7, 5-(aziridin-1-yl)-N-[2-(imidazol-1-yl)ethyl]-2,4-dinitrobenzamide], the pIC50 in assay [2] (setting [11]) was 6.00; in assay [4] (setting [12]), 6.41; in assay [5] (setting [13]), 4.33; in assay [6] (setting [14]), 4.21; in assay [7] (setting [15]), 3.38; in assay [8] (setting [16]), 6.24. Further, the “WiDr ratio of IC50s” value in assay [2] was 48. Moreover, in assay [4], the “V-79 ratio of IC50s” value amounted to 1170. The “SKOV ratio of IC50s” value in assay [8] turned out to be 104.
Regarding `COC(=O)CCNC(=O)c1cc(N2CC2)c([N+](=O)[O-])cc1[N+](=O)[O-]` [Compound 8, 5-(aziridin-1-yl)-N-[2-(methoxycarbonyl)ethyl]-2,4-dinitrobenzamide], the pIC50 was 5.64 in assay [2] (Homo sapiens, WiDr, 18 h); 6.40 in assay [4] (setting [9]); 3.91 in assay [5] (Homo sapiens, WiDr, 18 h); 3.17 in assay [6] (Homo sapiens, SK-OV-3, 18 h); 3.24 in assay [7] (setting [10]); 5.60 in assay [8] (Homo sapiens, 18 h). The “WiDr ratio of IC50s” value in assay [2] was determined as 51. The “V-79 ratio of IC50s” value in assay [4] worked out at 1580. Further, in assay [8], the “SKOV ratio of IC50s” value came to 270.
Regarding `NC(=O)c1ccc([N+](=O)[O-])c(N2CC2)c1` [Compound 9, 3-(aziridin-1-yl)-4-nitrobenzamide], the pIC50 in assay [2] (setting [11]) is 4.21; in assay [4] (setting [12]), 4.21; in assay [5] (setting [13]), 3.99; in assay [6] (setting [14]), 4.03; in assay [7] (setting [15]) it was 3.97; in assay [8] (setting [16]), 4.21. The “WiDr ratio of IC50s” value in assay [2] worked out at 1.6. Besides, the “V-79 ratio of IC50s” value in assay [4] was 1.4. Further, the “SKOV ratio of IC50s” value in assay [8] turned out to be 1.6.
`NC(=O)c1cc(N2CC2)ccc1[N+](=O)[O-]` [Compound 11, 5-(aziridin-1-yl)-2-nitrobenzamide]: the pIC50 in assay [2] (setting [11]) was 4.05; in assay [4] (setting [12]), 4.09; in assay [5] (setting [13]), 3.90; in assay [6] (setting [14]) it was 3.89; in assay [7] (setting [15]), 3.92; in assay [8] (setting [16]) it was 3.99. For the same compound, in assay [2], the “WiDr ratio of IC50s” value is 1.4. In addition, the “V-79 ratio of IC50s” value in assay [4] is given as 1.5. Also, the “SKOV ratio of IC50s” value in assay [8] is reported as 1.4.
In the case of `CS(=O)(=O)c1cc([N+](=O)[O-])c(C(N)=O)cc1N1CC1` [Compound 12, 5-(aziridin-1-yl)-4-(methylsulfonyl)-2-nitrobenzamide], the negative logarithm of the IC50 (pIC50) in assay [2] (setting [11]) is 4.66; in assay [4] (setting [12]), 4.40; in assay [5] (setting [13]) it was 3.65; in assay [6] (setting [14]), 3.41; in assay [7] (setting [15]), 3.38; in assay [8] (setting [16]) it was 4.66. Further, in assay [2], the “WiDr ratio of IC50s” value turned out to be 10. In assay [4], the “V-79 ratio of IC50s” value is on record as 12. For the same compound, the “SKOV ratio of IC50s” value in assay [8] was found to be 19.
With `O=C(NCC(O)CO)c1cc([N+](=O)[O-])cc([N+](=O)[O-])c1N1CC1` (stereo not drawn) [Compound 17, 2-(aziridin-1-yl)-N-(2,3-dihydroxypropyl)-3,5-dinitrobenzamide], the pIC50 in assay [2] (setting [11]) is 4.92; in assay [4] (setting [12]), 5.22; in assay [5] (setting [13]) it was 3.06; in assay [6] (setting [14]), 2.89; in assay [7] (setting [15]), 2.84; in assay [8] (setting [16]), 5.14. In assay [2], the “WiDr ratio of IC50s” value is 71. The “V-79 ratio of IC50s” value in assay [4] was determined as 208. In addition, the “SKOV ratio of IC50s” value in assay [8] is listed as 184.
As to `O=C(NCCN1CCOCC1)c1cc([N+](=O)[O-])cc([N+](=O)[O-])c1N1CC1` [Compound 18, 2-(aziridin-1-yl)-N-[2-(4-morpholino)ethyl]-3,5-dinitrobenzamide], the pIC50 was 4.74 in assay [2] (setting [17]); 5.14 in assay [4] (setting [18]); 3.28 in assay [5] (WIDR cells, 18 h drug exposure); less than 3.30 in assay [6] (setting [19]); less than 3.30 in assay [7] (setting [20]); 4.96 in assay [8] (setting [21]). Further, the “WiDr ratio of IC50s” value in assay [2] is recorded as 32. The “V-79 ratio of IC50s” value in assay [4] is greater than 68. For the same compound, the “SKOV ratio of IC50s” value in assay [8] is on record as greater than 72.

(Values after patent US6517836B1, “Nitrophenylaziridine compounds and their use as prodrugs” (Auckland Uniservices Limited, priority 1998, dated 2003).)
